Calls of active or inactive are those of the source. The rule behind the calls is not given here.

For this assay, the system named is HT-29. In words: Potentiation of cisplatin-induced cytotoxicity in human HT-29 cells. The class given is functional, cell-based.

Regarding `CC1(C)CC[C@]2(C(=O)O[C@@H]3O[C@H](CO)[C@@H](O)[C@H](O)[C@H]3O)CC[C@]3(C)C(=CC[C@@H]4[C@@]5(C)CC[C@H](O[C@@H]6O[C@H](C(=O)O)[C@@H](O)[C@@H]7OC(O)(C(=O)O)C(OCC(=O)O)O[C@@H]67)C(C)(C)[C@@H]5CC[C@]43C)[C@@H]2C1` (stereo partly specified), the outcome was inactive.
